# In patent US11912701B2, “Protein kinase inhibitors for promoting liver regeneration or reducing or preventing hepatocyte death” (HEPAREGENIX GMBH, priority 2018, dated 2024):
# Legend:
# MKK7 [1] = biological target: T1, MKK7 (Homo sapiens, UniProt O14733); experiment: KINOMEscan competition binding assay, MKK7; design: M1/R419; host or cells: HEK-293; conditions: ratio PoC (off-target)/PoC (MKK4)
# T1 sequence (O14733 1-419): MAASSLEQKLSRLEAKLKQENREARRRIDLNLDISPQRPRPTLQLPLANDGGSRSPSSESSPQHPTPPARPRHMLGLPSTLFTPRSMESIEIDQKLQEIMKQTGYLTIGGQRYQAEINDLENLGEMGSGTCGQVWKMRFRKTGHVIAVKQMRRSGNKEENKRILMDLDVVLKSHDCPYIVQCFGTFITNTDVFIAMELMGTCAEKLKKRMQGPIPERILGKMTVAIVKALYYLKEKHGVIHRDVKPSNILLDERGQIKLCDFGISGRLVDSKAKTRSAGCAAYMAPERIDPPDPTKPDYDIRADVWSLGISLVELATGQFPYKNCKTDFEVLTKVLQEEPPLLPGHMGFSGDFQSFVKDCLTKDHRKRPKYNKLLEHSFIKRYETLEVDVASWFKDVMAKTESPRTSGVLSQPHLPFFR
# Experimental: (§1) The assay was performed by combining three components: DNA-tagged kinase; immobilized ligand; and a test compound. The ability of the test compound to compete with the immobilized ligand was measured via quantitative PCR of the DNA tag. The technology is described in detail in Fabian, M. A. et al. A small molecule-kinase interaction map for clinical kinase inhibitors. Nat. […] Nat.
# (§2) For investigation of the affinity to MKK4, BRaf, MKK7 and JNK1, the kinases were produced in HEK-293 cells and subsequently tagged with DNA for qPCR detection. […] The liganded beads were blocked with excess biotin and washed with blocking buffer (SEABLOCK™ (Pierce), 1% BSA, 0.05% TWEEN®20, 1 mM DTT) to remove unbound ligand and to reduce nonspecific binding. […] All reactions were performed in polystyrene 96-well plates in a final volume of 0.135 mL. […] The kinase concentration in the eluates was measured by qPCR.
# (§3) The test compounds were provided as 10 mM stock solutions. The test solutions at indicated final concentrations were prepared at DiscoverX.
# (§4) Potency of representative examples against the protein kinases MKK4, BRaf, MKK7 and JNK1 expressed as residual percent of control binding (PoC), was determined at a concentration of 100 nM. The determined potencies are categorized as follows:
# (§5) The binding selectivity of representative examples against the protein kinases BRaf, MKK7 and JNK1, altogether denominated as “off-targets” is determined by the ratios of PoC (off-target)/PoC (MKK4).
# JNK1 [2] = biological target: T2, JNK1 (Homo sapiens, UniProt P45983); experiment: 33PanQinase enzyme assay, JNK1; assay type: biochemical; design: purchased ProQinase GmbH, Freiburg, Germany (33PanQinase Assay Service); conditions: ratio IC50(JNK1)/IC50(MKK4)
# Outline: (§6)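 Radiometric kinase reactions with ATP, test compound in DMSO and enzyme/substrate mix were incubated 60 min at 30 °C, stopped with 2% H3PO4 and washed; incorporated 33Pi was counted by scintillation. Single-concentration data are given as % residual activity; IC50 values come from least-squares curve fits.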
# Target sequence in this assay (P45983 whole entry): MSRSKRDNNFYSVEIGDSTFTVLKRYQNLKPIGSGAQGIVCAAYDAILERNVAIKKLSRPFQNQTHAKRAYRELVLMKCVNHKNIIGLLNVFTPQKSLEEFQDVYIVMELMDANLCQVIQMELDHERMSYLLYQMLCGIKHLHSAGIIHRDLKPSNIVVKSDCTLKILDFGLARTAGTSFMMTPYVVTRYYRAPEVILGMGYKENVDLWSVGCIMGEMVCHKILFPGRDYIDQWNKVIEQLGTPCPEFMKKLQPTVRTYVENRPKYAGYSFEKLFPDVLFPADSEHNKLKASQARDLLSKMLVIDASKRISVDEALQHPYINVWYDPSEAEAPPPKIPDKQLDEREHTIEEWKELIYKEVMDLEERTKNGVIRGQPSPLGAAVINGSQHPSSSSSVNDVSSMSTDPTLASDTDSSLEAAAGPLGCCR
# BRaf = biological target: T3, BRaf (Homo sapiens, UniProt P15056); experiment: KINOMEscan competition binding assay, BRaf; conditions: ratio PoC (off-target)/PoC (MKK4)
# T3 construct: purchased ProQinase GmbH, Freiburg, Germany (33PanQinase Assay Service)
# T3 sequence (P15056 whole entry, species assumed): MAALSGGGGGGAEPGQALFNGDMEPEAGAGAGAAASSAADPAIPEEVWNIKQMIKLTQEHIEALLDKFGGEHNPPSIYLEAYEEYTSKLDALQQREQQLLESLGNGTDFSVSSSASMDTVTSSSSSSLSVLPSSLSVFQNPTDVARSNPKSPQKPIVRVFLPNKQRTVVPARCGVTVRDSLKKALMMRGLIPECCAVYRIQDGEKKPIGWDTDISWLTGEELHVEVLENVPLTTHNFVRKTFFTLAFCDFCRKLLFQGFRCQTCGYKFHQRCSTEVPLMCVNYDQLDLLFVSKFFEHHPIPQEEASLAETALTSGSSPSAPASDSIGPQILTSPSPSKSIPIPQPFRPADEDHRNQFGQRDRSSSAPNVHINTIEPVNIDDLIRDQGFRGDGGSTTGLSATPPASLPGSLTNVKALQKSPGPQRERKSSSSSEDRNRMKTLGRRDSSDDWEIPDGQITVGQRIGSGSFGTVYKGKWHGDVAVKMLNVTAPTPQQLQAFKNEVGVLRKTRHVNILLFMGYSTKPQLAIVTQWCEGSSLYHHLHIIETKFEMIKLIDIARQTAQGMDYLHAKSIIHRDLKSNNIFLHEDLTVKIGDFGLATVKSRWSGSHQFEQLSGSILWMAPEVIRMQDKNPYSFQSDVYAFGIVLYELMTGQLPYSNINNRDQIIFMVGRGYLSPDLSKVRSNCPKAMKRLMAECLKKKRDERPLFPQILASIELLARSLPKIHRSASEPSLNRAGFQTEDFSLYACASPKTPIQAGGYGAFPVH
# Experimental: as §1, §2, §3, §4, §5
# MKK4 [3] = biological target: T4, MKK4 (Homo sapiens, UniProt P45985); experiment: KINOMEscan competition binding assay, MKK4; conditions: residual percent of control binding (PoC) at 100 nM
# T4 construct: S84/D399; host or cells: HEK-293
# T4 sequence (P45985 84-399): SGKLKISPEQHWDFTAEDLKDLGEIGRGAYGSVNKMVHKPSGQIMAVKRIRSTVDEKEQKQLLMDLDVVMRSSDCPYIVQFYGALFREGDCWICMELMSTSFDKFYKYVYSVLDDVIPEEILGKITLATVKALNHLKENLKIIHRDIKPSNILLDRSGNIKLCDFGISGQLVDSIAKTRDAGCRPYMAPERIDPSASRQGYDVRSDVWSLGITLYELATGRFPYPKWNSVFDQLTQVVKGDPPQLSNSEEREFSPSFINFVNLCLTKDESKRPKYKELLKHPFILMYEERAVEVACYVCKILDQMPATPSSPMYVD
# Experimental: as §1, §2, §3
# Potency of representative examples against the protein kinases MKK4, BRaf, MKK7 and JNK1 expressed as residual percent of control binding (PoC), was determined at a concentration of 100 nM. The determined potencies are categorized as follows: […]
# JNK1 [4] = biological target: T2, JNK1; experiment: KINOMEscan competition binding assay, JNK1; design: M1/Q384; host or cells: HEK-293; conditions: ratio PoC (off-target)/PoC (MKK4)
# Experimental: as §1, §2, §3, §4, §5
# Target sequence in this assay (P45983 1-384 isoform P45983-2): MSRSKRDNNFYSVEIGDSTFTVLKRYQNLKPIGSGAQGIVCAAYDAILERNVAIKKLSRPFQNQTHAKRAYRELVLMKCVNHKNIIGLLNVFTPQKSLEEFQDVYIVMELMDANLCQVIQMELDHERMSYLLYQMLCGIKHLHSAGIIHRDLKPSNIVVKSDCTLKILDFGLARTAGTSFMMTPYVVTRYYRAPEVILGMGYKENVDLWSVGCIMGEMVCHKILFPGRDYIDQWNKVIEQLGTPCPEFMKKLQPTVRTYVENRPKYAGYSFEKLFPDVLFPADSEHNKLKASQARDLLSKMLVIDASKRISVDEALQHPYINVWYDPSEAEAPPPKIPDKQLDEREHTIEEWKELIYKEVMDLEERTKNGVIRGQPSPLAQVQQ
# MKK4 [5] = biological target: T5, MKK4 (Homo sapiens, UniProt P45985); experiment: 33PanQinase enzyme assay, MKK4; assay type: biochemical; conditions: for IC50: assay 'IC50', read-out: Potency MKK4 (IC50); for remaining activity at 0.1 µM: single concentration 100 nM, read-out: Potency MKK4 (residual activity, assay at single concentration)
# T5 construct: purchased ProQinase GmbH, Freiburg, Germany (33PanQinase Assay Service)
# T5 sequence (P45985 1-399): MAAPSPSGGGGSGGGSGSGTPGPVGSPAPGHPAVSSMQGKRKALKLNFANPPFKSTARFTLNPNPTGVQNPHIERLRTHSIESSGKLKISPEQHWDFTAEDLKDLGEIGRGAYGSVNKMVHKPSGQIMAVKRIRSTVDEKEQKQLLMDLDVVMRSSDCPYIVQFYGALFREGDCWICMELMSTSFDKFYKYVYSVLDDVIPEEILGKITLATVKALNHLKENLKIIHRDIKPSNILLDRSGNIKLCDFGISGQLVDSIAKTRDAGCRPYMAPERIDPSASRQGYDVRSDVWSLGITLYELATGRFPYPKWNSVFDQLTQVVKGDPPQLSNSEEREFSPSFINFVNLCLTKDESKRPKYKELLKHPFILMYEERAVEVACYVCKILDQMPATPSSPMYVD
# Outline: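 Radiometric 33PanQinase assay: kinase, substrate, ATP and compound in standard buffer, 60 min at 30 °C; 33Pi incorporation read by scintillation counting.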
# MKK7 [6] = biological target: T1, MKK7; experiment: 33PanQinase enzyme assay, MKK7; assay type: biochemical; design: purchased ProQinase GmbH, Freiburg, Germany (33PanQinase Assay Service); conditions: ratio IC50(MKK7)/IC50(MKK4)
# Outline: as §6
SMILES,selectivity based on % Ctrl @100 nM vs. MKK7 (MKK7 [1]),"Selectivity JNK1, IC50(off-target)/IC50(MKK4) (JNK1 [2])",selectivity based on % Ctrl @100 nM vs. Braf (BRaf),MKK4 [% Ctrl @ 100 nM (MKK4 [3]),selectivity based on % Ctrl @100 nM vs. JNK1 (JNK1 [4]),IC50 (MKK4 [5]),"Selectivity IVIKK7, IC50(off-target)/IC50(MKK4) (MKK7 [6])",remaining activity at 0.1 µM (MKK4 [5])
"CCCS(=O)(=O)Nc1ccc(F)c(C(=O)c2c[nH]c3ncc(-c4csc(SC)n4)cc23)c1F [Example 87, N-(2,4-difluoro-3-(5-(2-(methylthio)thiazol-4-yl)-1H-pyrrolo[2,3-b]pyridine-3-carbonyl)phenyl)propane-1-sulfonamide]",◯ (3 ≥ Ratio),◯ (3 ≥ IC50(off-target)/IC50(MKK4)),◯ (3 ≥ Ratio),◯ (30 ≤ PoC),◯ (3 ≥ Ratio),> 10000 nM,◯ (3 ≥ IC50(off-target)/IC50(MKK4)),
"CNc1ncc(-c2cnc3[nH]cc(C(=O)c4ccc(F)c(NS(=O)(=O)CCC(F)(F)F)c4F)c3c2)cn1 [Example 177, N-(2,6-difluoro-3-(5-(2-(methylamino)pyrimidin-5-yl)-1H-pyrrolo[2,3-b]pyridine-3-carbonyl)phenyl)-3,3,3-trifluoropropane-1-sulfonamide]",+++ (Ratio > 100),+++ (IC50(off-target)/IC50(MKK4) > 100),+++ (Ratio > 100),+++ (PoC < 1),+++ (Ratio > 100),< 100 nM,+++ (IC50(off-target)/IC50(MKK4) > 100),
"CCCS(=O)(=O)Nc1ccc(F)c(C(=O)c2c[nH]c3ncc(-c4c[nH]c(=O)cn4)cc23)c1F [Example 88, N-(2,4-difluoro-3-(5-(5-oxo-4,5-dihydropyrazin-2-yl)-1H-pyrrolo[2,3-b]pyridine-3-carbonyl)phenyl)propane-1-sulfonamide]",+++ (Ratio > 100),◯ (3 ≥ IC50(off-target)/IC50(MKK4)),+ (10 ≥ ratio > 3),+++ (PoC < 1),+++ (Ratio > 100),100 to 1000 nM,++ (100 ≥ IC50(off-target)/IC50(MKK4) > 10),
"O=C(c1c(F)ccc(NS(=O)(=O)Cc2ccccc2)c1F)c1c[nH]c2ncc(-c3ccc(OCC(O)CO)cc3Cl)cc12 (centres unmarked) [Example 41, N-(3-(5-(2-chloro-4-(2,3-dihydroxypropoxy)phenyl)-1H-pyrrolo[2,3-b]pyridine-3-carbonyl)-2,4-difluorophenyl)-1-phenylmethane-sulfonamide]",++ (100 ≥ ratio > 10),,++ (100 ≥ ratio > 10),++ (1 ≤ PoC < 3),++ (100 ≥ ratio > 10),,,70 to 90%
CCCS(=O)(=O)Nc1ccc(F)c(C(=O)c2c[nH]c3ncc(-c4ccc5ccoc5c4)cc23)c1F [Example 52],++ (100 ≥ ratio > 10),,◯ (3 ≥ Ratio),+ (3 ≤ PoC < 30),++ (100 ≥ ratio > 10),,,70 to 90%

# Next, values leading:
selectivity based on % Ctrl @100 nM vs. MKK7 (MKK7 [1]),"Selectivity JNK1, IC50(off-target)/IC50(MKK4) (JNK1 [2])",selectivity based on % Ctrl @100 nM vs. Braf (BRaf),MKK4 [% Ctrl @ 100 nM (MKK4 [3]),selectivity based on % Ctrl @100 nM vs. JNK1 (JNK1 [4]),IC50 (MKK4 [5]),"Selectivity IVIKK7, IC50(off-target)/IC50(MKK4) (MKK7 [6])",remaining activity at 0.1 µM (MKK4 [5]),SMILES
+ (10 ≥ ratio > 3),,◯ (3 ≥ Ratio),+ (3 ≤ PoC < 30),+ (10 ≥ ratio > 3),,,70 to 90%,"CCCS(=O)(=O)Nc1ccc(F)c(C(=O)c2c[nH]c3ncc(-c4cccc(Cl)c4)cc23)c1F [Example 32, N-(3-(5-(3-chlorophenyl)-1H-pyrrolo[2,3-b]pyridine-3-carbonyl)-2,4-difluorophenyl)propane-1-sulfonamide]"
◯ (3 ≥ Ratio),,◯ (3 ≥ Ratio),◯ (30 ≤ PoC),◯ (3 ≥ Ratio),,,50 to 70%,"CCCS(=O)(=O)Nc1cccc(C(=O)c2c[nH]c3ncc(-c4ccc(Cl)cc4)cc23)c1C#N [Example 63, N-(3-(5-(4-chlorophenyl)-1H-pyrrolo[2,3-b]pyridine-3-carbonyl)-2-cyanophenyl)propane-1-sulfonamide]"
◯ (3 ≥ Ratio),,◯ (3 ≥ Ratio),◯ (30 ≤ PoC),◯ (3 ≥ Ratio),,,70 to 90%,"CCCS(=O)(=O)Nc1ccc(Br)c(C(=O)c2c[nH]c3ncc(-c4ccc(Cl)cc4)cc23)c1Br [Example 2b, N-(2,4-dibromo-3-(5-(4-chlorophenyl)-1H-pyrrolo[2,3-b]pyridine-3-carbonyl)phenyl)propane-1-sulfonamide]"
+ (10 ≥ ratio > 3),,+ (10 ≥ ratio > 3),+ (3 ≤ PoC < 30),+ (10 ≥ ratio > 3),,,70 to 90%,CCCS(=O)(=O)Nc1c(Cl)ccc(C(=O)c2c[nH]c3ncc(-c4ccc(Cl)cc4)cc23)c1F [Example 2d]
++ (100 ≥ ratio > 10),,++ (100 ≥ ratio > 10),+ (3 ≤ PoC < 30),++ (100 ≥ ratio > 10),1000 to 10000 nM,,,"CCCS(=O)(=O)Nc1ccc(Br)c(C(=O)c2c[nH]c3ncc(-c4ccc(Cl)cc4)cc23)c1F [Example 60, N-(4-bromo-3-(5-(4-chlorophenyl)-1H-pyrrolo[2,3-b]pyridine-3-carbonyl)-2-fluorophenyl)propane-1-sulfonamide]"
